The results in this text go back to patent US20210236468A1, “COMPOSITION FOR PREVENTING OR TREATING CANCER, COMPRISING A VASCULAR DISRUPTING AGENT AND TAXANE COMPOUND” (Chong Kun Dang Pharmaceutical Corp., priority 2018, published 2021).

Marks after values point to notes of the source that are not given here.

The subject of one assay is H460 cancer cell lines. In words: Anti-cancer activity (tumor volume) in H460 lung cancer tissue-transplanted Balb/c nude mice. Conditions: H460 tumor transplant, paclitaxel 20 mg/kg iv, CKD-516 2.5 mg/kg ip, once a week for three weeks, FIG. 5, FIG. 6.
The subject of the next assay is H1975 cell lines. In words: Anti-cancer activity (tumor volume) in H1975 lung cancer xenograft nude mice. The class given is in vivo, human. Particulars: CKD-516 3 mg/kg ip, twice a week for three weeks; for Tumor volume / tumor growth, result in words: FIG. 1, FIG. 2. Here is the method:
As a human tumor cell line, a lung cancer cell line, i.e., H1975 cell lines were purchased from the American Type Culture Collections (ATCC). One vial of the cell lines was inserted into an RPMI1640 medium (Gibco, 22400) containing a heatinactivated 10% fetal bovine serum (FBS; Gibco, 10082-742), and cultured in a 5% CO2 incubator at 37° C. The resulting cells were washed with PBS, after which a 10-fold dilution of 2.5% Trypsin-EDTA (Gibco, 15090) was added thereto, such that cells were isolated therefrom. Then, centrifugation was performed (at 1,000 rpm for 5 min), after which supernatant thereof was discarded, such that a cell suspension was obtained by means of a new medium. A survival rate was identified with a microscope to make a preparation in an amount of 1.0×10^7 cells/mL.
The five-week old male […] nude mice (Hsd: Athymic Nude-Foxn1^nu) were purchased from Saeron Bio Inc. (Gyeonggi Province in South Korea).
Thus prepared tumor cell lines were subcutaneously (sc) injected by 0.2 ml (2×10^6 cells) into a back of the mice by using a 26-gauge needle syringe. In about three to four weeks after the injection, animals whose tumor sizes reached 170 mm^3 to 220 mm^3 were selected and used for an experiment.
A comparison between a positive control group and groups dosed with a test substance with regard to a negative control group, and a comparison between the positive control group and the groups dosed with a test substance were verified through One-way ANOVA. At this time, assuming that significance was accepted, a post-hoc test was performed with Duncan test, if an equal variance was accepted, and with Dunnett's test, if the equal variance was not accepted. If p-value is 0.05 or less, significance was accepted, and SPSS 10.1, a statistical program in common use, was used.

The subject of the next assay is A-549 cancer cell lines. In words: Anti-cancer activity (tumor volume) in A-549 lung cancer xenograft Balb/c nude mice. It is filed as in vivo, human. Conditions: A549 xenograft, docetaxel 2.5 mg/kg ip once a week, CKD-516 4 mg/kg po daily, eight weeks, FIG. 3, FIG. 4. An excerpt:
A-549 cancer cell lines (1×10^7 cells), which are human lung cancer cell lines purchased from the ATCC, were subcutaneously injected into the mice. Particularly, a needle point was inserted into mice in the left side before injecting cancer cells, and moved from side to side to inject the cancer cells and to identify that an administered solution was not leaked out, such that a tumorigenesis was observed. Animals whose tumor sizes reached 100 mm^3 to 250 mm^3 were selected and used for an experiment.
Experimental groups were randomly divided as shown in the table 3 above. • Vehicle: Daily for eight weeks, oral administration; • Docetaxel: 2.5 mg/kg, once a week for eight weeks, intraperitoneal administration; • CKD-516: 4 mg/kg, daily for eight weeks, oral administration; and • CKD-516+Docetaxel: CKD-516 (4 mg/kg, daily for eight weeks, oral administration) to be administered first+Docetaxel (2.5 mg/kg, once a week for eight weeks, intraperitoneal administration).
For the tumor volume, statistical processing was performed by using a statistical processing program (GraphPad PRISM® Version 5.0, GraphPad Software, the U.S.).

Where [1] appears, read: date 4/10, docetaxel 6 mg/kg ip.
[2] abbreviates: date 4/14, docetaxel 6 mg/kg ip.
[3] abbreviates: date 4/17, docetaxel 6 mg/kg ip.
The mark [4] stands for this setting: date 4/21, docetaxel 6 mg/kg ip.
Setting [5] is: date 4/24 (end of experiment), docetaxel 6 mg/kg ip.

Description for H460 cancer cell lines: The four-week old male Balb/c nude mice were purchased from Central Lab Animal Inc.
In 20 to 25 days later, the mice were subjected to euthanasia by means of cervical vertebral dislocation, after which a solid cancer proliferated in the mice was sterilely isolated therefrom to obtain fresh cancer tissues, from which connective tissues, necrotic tissues, skins, etc. were removed.
The cancer tissues were divided by 50 mg in a sterile state, and subcutaneously transplanted into the mice by using a 16-gauge trocar. In 12 days after the transplantation, the mice whose cancer tissues were proliferated up to a certain size, were selected and used for the experiment.
Paclitaxel was dissolved in an excipient (excipient 2), which was prepared by mixing cremophor, ethanol and saline at a ratio of 1:1:8, and prepared in accordance with the administered dose for each group as shown in the following table 4.
The anti-cancer activity was determined based on a tumor volume. The tumor volume was obtained by measuring a long axis and a short axis of the tumor by means of electronic callipers (CD-15CPX, Mitutoyo Corp., Japan) and calculating measured values according to a following equation (twice a week):
Tumor volume (mm^3)=(Long axis length×Short axis length^2)/2.

Turning to `CC(=O)O[C@H]1C(=O)[C@@]2(C)[C@H]([C@H](OC(=O)c3ccccc3)[C@]3(O)C[C@H](OC(=O)[C@H](O)[C@@H](NC(=O)c4ccccc4)c4ccccc4)C(C)=C1C3(C)C)[C@]1(OC(C)=O)CO[C@@H]1C[C@@H]2O` [paclitaxel], in the assay on H460 cancer cell lines, the “Tumor volume / tumor growth, result in words” value (shortened to “Tumor volume / tumor growth”) was “a growth of the tumor was decreased over time compared to the negative control group, but the tumor volume was continuously increased”.

For the compound `COc1cc(C(=O)c2ccc(-c3csc(NC(=O)[C@@H](N)C(C)C)n3)cc2-n2cncn2)cc(OC)c1OC` [CKD-516, (S)—N-(4-(3-(1H-1,2,4-triazole-1-yl)-4-(3,4,5-trimethoxybenzoyl)phenyl)thiazole-2-yl)-2-amino-3-methylbutanamide], the “Tumor volume (mm^3), mean” value in the assay with H1975 cell lines (date 4/7, docetaxel 6 mg/kg ip) is recorded as 121.8 mm^3; in the assay on H1975 cell lines (setting [1]), 146.3 mm^3; with H1975 cell lines (setting [2]), 321.3 mm^3; in the assay on H1975 cell lines (setting [3]) it was 432.4* mm^3; with H1975 cell lines (setting [4]) it was 504.9 mm^3; in the assay on H1975 cell lines (setting [5]), 790.7*** mm^3. Also, the “Tumor volume / tumor growth” value is on record as “showed a similar tendency to the group dosed with docetaxel” in the assay with H1975 cell lines (docetaxel 6 mg/kg ip), “the tumor did not almost grow” in the assay on A-549 cancer cell lines and “showed a similar tendency to the group dosed with paclitaxel” in the assay with H460 cancer cell lines.

`CC(=O)O[C@@]12CO[C@@H]1C[C@H](O)[C@@]1(C)C(=O)[C@H](O)C3=C(C)[C@@H](OC(=O)[C@H](O)[C@@H](NC(=O)OC(C)(C)C)c4ccccc4)C[C@@](O)([C@@H](OC(=O)c4ccccc4)[C@H]21)C3(C)C` [Docetaxel, docetaxel]: the “Tumor volume (mm^3), mean” value in the assay on H1975 cell lines (date 4/7, docetaxel 6 mg/kg ip) is given as 123.4 mm^3; in the assay on H1975 cell lines (setting [1]), 178.0 mm^3; with H1975 cell lines (setting [2]), 309.6 mm^3; with H1975 cell lines (setting [3]) it was 460.5 mm^3; in the assay on H1975 cell lines (setting [4]), 500.2*** mm^3; in the assay with H1975 cell lines (setting [5]) it was 513.9*** mm^3. Besides, the “Tumor volume / tumor growth” value is “a growth of the tumor was decreased over time compared to the negative control group, but the tumor volume was continuously increased” with H1975 cell lines (docetaxel 6 mg/kg ip) and “no significant difference in a growth rate of the tumor compared to the negative control group” with A-549 cancer cell lines.
